The results in this text go back to patent US20130096370A1, “COMPOSITIONS AND SYSTEMS FOR THE REGULATION OF GENES” (priority 2002, published 2013).

This test deals with p53 in MCF-7 breast cancer cells. Description: Down modulation of endogenous p53 in MCF-7 cells by dox-inducible siRNA lentivectors (Western blot). It counts as cell-based. The following applies: dually transduced MCF-7 cells, 5 days in dox, FIG. 7B. On the procedure: To analyze the regulation of GFP a Hela cell clone carrying a single copy of the WPXLGFP provirus (Hela-GFP) was used. For transduction, Hela-GFP, MCF-7 or Hela cells were plated on 24-well plate (20×10^4 cells/well) and after 16 hrs medium containing recombinant lentivectors was added. Following 16 hrs of incubation the cells were washed, split and doxycycline was added to half of the transduced cells at a final concentration of 5 μg/ml. Five days later the cells were harvested and analyzed by FACS.
Cell extracts were prepared in RIPA lysis buffer (25 mM Tris pH 7.5, 1% Triton X-100, 0.5% sodium deoxycholate, 5 mM EDTA, 150 mM NaCl) containing a cocktail of protease inhibitors (Sigma). The protein samples (10 μg) were separated on 4-20% gradient PAGE-SDS gel, electroblotted to polyvinylidene fluoride membranes (Perkin Elmer) and exposed to antibodies against p53 (Santa Cruz Biotechnology), Lamin A/C (Santa Cruz Biotechnology), GFP (Clontech) and actin (Calbiochem). Antibodies conjugated with horseradish peroxidase (Amersham) and enhanced chemiluminescence (ECL; Amersham) was used for detection.
(In general: Immunoblotting shows a protein as a band on a membrane.)

Consider `C[C@H]1c2cccc(O)c2C(=O)C2=C(O)[C@]3(O)C(=O)C(C(N)=O)=C(O)[C@@H](N(C)C)[C@@H]3[C@@H](O)[C@@H]21` [doxycycline], for which the “dox concentration at which full-blown p53 suppression was achieved” value came to 0.25 µg/mL and the “dox concentration at which p53 downregulation was already apparent” value amounted to 0.004 µg/mL.
